The values that follow come from patent US10344330B2, “Glatiramer acetate response biomarker mRNA potency assay” (Mylan Inc., priority 2013, dated 2019).

One experiment deals with IL-13 mRNA in LN cells. In words: IL-13 mRNA by real-time PCR in LN cells of GA-immunized CD-1, BALB/cByJ, SJL/J mice (Example III). Particulars: 6 hours. The format is cell-based, mouse. As for the experimental part: (§1) On Day 0, mice were immunized with 250 μg GA (GMA, Mylan Pharmaceuticals, Inc.) and CFA. The GA solution (20 mg/mL) was diluted with Dulbecco's Phosphate-Buffered Saline to 5 mg/mL. The dosing formulation consisted of equal volumes of the diluted GA solution (5 mg/mL) and CFA solution, mixed until well-emulsified. Animals were weighed and allocated to groups. Animals were dosed by injection into four footpads. The injection volume per animal was 0.1 mL (about 10 μL into each front footpad, and 40 μL into each hind footpad).
(§2) Immunized animals were euthanized by cervical dislocation on Day 10 post-immunization. Lymph node cells were isolated from animals and treated with Myelin Basic Protein (MBP, a negative control), Concanavalin A (ConA, a positive control) or GA as shown in Table 16. Lymph nodes in the axillary and popliteal regions were removed aseptically in a purifier clean bench. […] The LN were then washed 3 times with −5 mL of RPMI medium, and isolated by pressing the LN with a syringe plunger. […] The cell suspension was centrifuged at about 200×g for 10 minutes at about 4° C. and re-suspended in ice cold enriched DCCM-1 medium. Cells were seeded in 96-well tissue culture plates.
(§3) LN cells isolated from GA-immunized animals were stimulated with GA (GMA, Mylan Pharmaceuticals, Inc.) at concentrations as indicated in Tables 16 and 17. A positive control was prepared by treating LN cells with 2.5 μg/mL concavalin A (ConA, a non-specific T cell stimulant). Myelin basic protein (MBP, 10 μg/mL) and enriched DCCM-1 medium served as negative controls. The cells from all groups each were stimulated with the same GA lot. Each reaction was set up in triplicate.
(§4) After incubation at about 37° C. in a humidified CO2 incubator for 6 hours, the cells were lysed for total RNA isolation. Total RNA was isolated from treated LN cells using SV 96 Total RNA Isolation System according to the manufacturer's protocol (Promega, Cat. #Z3500). Cells were washed once with Phosphate Buffered Saline (PBS) and lysed in RNA lysis buffer. The lysate was transferred to wells of the SV 96 binding plate. Samples were washed with RNA wash solution and treated with DNase. Total RNA was eluted with nuclease-free water from the binding plate.
(§5) After the reverse transcriptase reaction was completed, cDNA samples were used directly for real-time PCR to measure the response biomarker mRNA levels produced by the stimulated cells. […] All probes for target genes contained FAM dye, and probes for the internal control contained VIC®/MGB dye. Samples will be prepared and run in 96-well plates using a Real-Time PCR system (7500, Life Technologies). This system allows direct detection of PCR-product formation by measuring the increase in fluorescent emission continuously during the PCR reaction. A relative quantitation method was used to analyze changes in mouse IL-2, IL-4, IL-5, IL-10, IL-13, IFN-γ and TNF-α expression in GA-treated samples relative to the untreated control (enriched DCCM-1 treated) samples. The Real-Time PCR program was:
(§6) The levels of mouse cytokine amplicons (IL-2, IL-4, IL-5, IL-10, IL-13, mIFN-γ and TNF-α) were normalized to internal probe levels (GAPDH) from the same samples. The following equations were used to calculate the relative increase in response to GA stimulation compared to the control sample: ΔCT=CT_target−CT_reference ΔΔCT=−ΔCT_Treated−CT_VC
On the technique in general: Real-time PCR tracks product formation cycle by cycle.

In another experiment the test system is IL-10 mRNA in LN cells. The experiment in a line: IL-10 mRNA by real-time PCR in LN cells of GA-immunized CD-1, BALB/cByJ, SJL/J mice (Example III). Particulars: 6 hours. The format is cell-based, mouse. As for the experimental part:
as §1, §2, §3, §4, §5, §6

Setting [1] is: Group 1C: CD-1, GA-immunized, stimulation 2.5 μg/mL.
The mark [2] stands for this setting: Group 2C: BALB/cByJ, GA-immunized, stimulation 2.5 μg/mL.
The mark [3] stands for this setting: Group 3C: SJL/J, GA-immunized, stimulation 2.5 μg/mL.
[4] abbreviates: Group 1C: CD-1, GA-immunized, stimulation 0.3 μg/mL.
Where [5] appears, read: Group 1C: CD-1, GA-immunized, stimulation 1 μg/mL.
[6] abbreviates: Group 1C: CD-1, GA-immunized, stimulation 3 μg/mL.
Where [7] appears, read: Group 1C: CD-1, GA-immunized, stimulation 10 μg/mL.
[8] abbreviates: Group 2C: BALB/cByJ, GA-immunized, stimulation 0.3 μg/mL.
The mark [9] stands for this setting: Group 2C: BALB/cByJ, GA-immunized, stimulation 1 μg/mL.
[10] abbreviates: Group 2C: BALB/cByJ, GA-immunized, stimulation 3 μg/mL.
[11] abbreviates: Group 2C: BALB/cByJ, GA-immunized, stimulation 10 μg/mL.
Where [12] appears, read: Group 3C: SJL/J, GA-immunized, stimulation 0.3 μg/mL.
[13] abbreviates: Group 3C: SJL/J, GA-immunized, stimulation 1 μg/mL.
Setting [14] is: Group 3C: SJL/J, GA-immunized, stimulation 3 μg/mL.
Where [15] appears, read: Group 3C: SJL/J, GA-immunized, stimulation 10 μg/mL.

With “Concanavalin A [ConA, reference compound]”, the “IL-13 mRNA Expression” value with IL-13 mRNA in LN cells (setting [1]) is listed as 31.3 fold change vs control; in the experiment with IL-13 mRNA in LN cells (setting [2]), 32.0 fold change vs control; in the experiment with IL-13 mRNA in LN cells (setting [3]) it was 24.4 fold change vs control. The “IL-10 mRNA Expression” value in the experiment on IL-10 mRNA in LN cells (setting [1]) was determined as 0.4 fold change vs control; in the experiment on IL-10 mRNA in LN cells (setting [2]) it was 0.9 fold change vs control; in the experiment on IL-10 mRNA in LN cells (setting [3]), 0.4 fold change vs control.
For “L-glutamic acid polymer with L-alanine, L-lysine and L-tyrosine, acetate (salt) [GA]”, the “IL-13 mRNA Expression” value in the experiment with IL-13 mRNA in LN cells (setting [4]) turned out to be 1.7 fold change vs control; in the experiment with IL-13 mRNA in LN cells (setting [5]) it was 3.3 fold change vs control; with IL-13 mRNA in LN cells (setting [6]) it was 9.4 fold change vs control; in the experiment on IL-13 mRNA in LN cells (setting [7]), 12.3 fold change vs control; in the experiment with IL-13 mRNA in LN cells (setting [8]), 3.2 fold change vs control; with IL-13 mRNA in LN cells (setting [9]), 9.1 fold change vs control. Moreover, the “IL-13 mRNA Expression” value in the experiment with IL-13 mRNA in LN cells (setting [10]) is given as 12.4 fold change vs control; in the experiment on IL-13 mRNA in LN cells (setting [11]), 12.6 fold change vs control; in the experiment on IL-13 mRNA in LN cells (setting [12]), 1.7 fold change vs control; in the experiment on IL-13 mRNA in LN cells (setting [13]) it was 7.3 fold change vs control; in the experiment on IL-13 mRNA in LN cells (setting [14]) it was 12.9 fold change vs control; in the experiment with IL-13 mRNA in LN cells (setting [15]) it was 20.0 fold change vs control. Further, the “IL-10 mRNA Expression” value with IL-10 mRNA in LN cells (setting [4]) came out at 0.7 fold change vs control; with IL-10 mRNA in LN cells (setting [5]) it was 0.8 fold change vs control; in the experiment with IL-10 mRNA in LN cells (setting [6]), 0.9 fold change vs control; in the experiment with IL-10 mRNA in LN cells (setting [7]) it was 0.9 fold change vs control; with IL-10 mRNA in LN cells (setting [8]), 0.7 fold change vs control; in the experiment on IL-10 mRNA in LN cells (setting [9]) it was 1.0 fold change vs control. Further, the “IL-10 mRNA Expression” value in the experiment with IL-10 mRNA in LN cells (setting [10]) came to 1.3 fold change vs control; with IL-10 mRNA in LN cells (setting [11]), 1.3 fold change vs control; in the experiment on IL-10 mRNA in LN cells (setting [12]) it was 0.5 fold change vs control; in the experiment with IL-10 mRNA in LN cells (setting [13]), 0.6 fold change vs control; in the experiment with IL-10 mRNA in LN cells (setting [14]), 0.5 fold change vs control; in the experiment with IL-10 mRNA in LN cells (setting [15]), 0.8 fold change vs control.

B1: MBP: myelin basic protein, a negative control (protein, UniProt P02686 1-304, looked up)
Myelin basic protein: MGNHAGKRELNAEKASTNSETNRGESEKKRNLGELSRTTSEDNEVFGEADANQNNGTSSQDTAVTDSKRTADPKNAWQDAHPADPGSRPHLIRLFSRDAPGREDNTFKDRPSESDELQTIQEDSAATSESLDVMASQKRPSQRHGSKYLATASTMDHARHGFLPRHRDTGILDSIGRFFGGDRGAPKRGSGKDSHHPARTAHYGSLPQKSHGRTQDENPVVHFFKNIVTPRTPPPSQGKGRGLSLSRFSWGAEGQRPGFGYGGRASDYKSAHKGFKGVDAQGTLSKIFKLGGRDSRSGSPMARR
Regarding B1, the “IL-13 mRNA Expression” value in the experiment on IL-13 mRNA in LN cells (setting [7]) was 1.5 fold change vs control; in the experiment with IL-13 mRNA in LN cells (setting [11]) it was 0.8 fold change vs control; in the experiment on IL-13 mRNA in LN cells (setting [15]) it was 0.6 fold change vs control. In addition, the “IL-10 mRNA Expression” value in the experiment on IL-10 mRNA in LN cells (setting [7]) was 0.7 fold change vs control; in the experiment on IL-10 mRNA in LN cells (setting [11]) it was 1.0 fold change vs control; with IL-10 mRNA in LN cells (setting [15]), 0.3 fold change vs control.
